How the values were obtained:
6-day ENR+CD cells [1] = experiment: Long-term (48-hour) modulators of basal and CCh-induced LYZ secretion; type: cell-based, murine; conditions: 48-hour treatment
Excerpt: We next sought to profile potential long-term modulators of differentiated PC survival and antimicrobial secretion, as well as gauge the interaction between long-term modulators and short-term induced secretion (via CCh). To accomplish this, we employed a similar set up as in the short-term experiment, with the exception that upon plating day 4 ENR+CD cells we additionally supplemented in either MDP, LPS, TNF-α, or IFN-γ for the additional 2 days in culture and assayed all conditions for both basal and CCh-induced LYZ secretion over 3 hours on day 6 of differentiation (FIG. 3A). […] Additionally, we see that the long-term addition reduces CCh-induced secretory function relative to the untreated control for all agents (FIG. 3D).
Small intestinal crypts were isolated from C57BL/6 mice of both sexes, aged between three to six months in all experiments. Crypts were then cultured in a Matrigel culture system. Briefly, crypts were resuspended in basal culture medium (Advanced DMEM/F12 with 2 mM GlutaMAX and 10 mM HEPES; Thermo Fisher Scientific) at a 1:1 ratio with Corning™ Matrigel™ Membrane Matrix—GFR (Fisher Scientific) and plated at the center of each well of 24-well plates. Following Matrigel polymerization, 500 μL of small intestinal crypt culture medium (basal media plus 100× N2 supplement, 50×B27 supplement; Life Technologies, 500× N-acetyl-L-cysteine; Sigma-Aldrich) supplemented with growth factors EGF—E (50 ng/mL, Life Technologies), Noggin—N (100 ng/mL, PeproTech) and R-spondin 1—R (500 ng/mL, PeproTech) and small molecules CHIR99021—C (3 μM, LC Laboratories) and valproic acid—V (1 mM, Sigma-Aldrich) was added to each well. ROCK inhibitor Y-27632—Y (10 μM, R&D Systems) was added for the first 2 days of culture. Cells were cultured at 37° C. with 5% CO2, and cell culture medium was changed every other day. After 6 days of culture, crypt organoids were isolated from Matrigel by mechanical dissociation. To expand enriched ISCs (ENR+CV/Y) or Paneth Cells (ENR+CD), organoids were cultured in 24-well plates, suspended in 40 uL 3-D gels (50-50 GFR MATRIGEL®, Basal culture media), with 500 uL of crypt media supplemented with necessary growth factors and small molecules. ROCK inhibitor (Y) was added for the first two days of ISC culture following reconstitution from cryopreservation or trypLE passaging to single cells. Cell culture medium was changed every other day. After 4 days of culture in ENR+CV, cell clusters were differentiated to PCs under the ENR+CD condition for 96-well short and long-term screens. For 384-well differentiation screens, 4-day ENR+CV clusters were passaged to single cells using trypLE, replated and expanded another 3 days in 3-D ENR+CVY and then passaged directly into screens.
For 96-well plate high-throughput screening, 4-day differentiated (ENR+CD) cell clusters in 3D Matrigel were transferred to a “2.5-D” 96-well plate culture system. Briefly, cell culture gel and medium were homogenized via mechanical disruption and centrifuged at 300 g for 3 min at 4° C. […] On the last repeat, pellet was resuspended in basal culture medium, the number of cell clusters counted, and centrifuged at 300 g for 3 min at 4° C. […] At end time points (following 2 days in culture and 3 hours of stimulation), lysozyme secretion and cell viability were assessed using Lysozyme Assay Kit and CellTiter-Glo 3D Cell Viability Assay (Promega), respectively, according to the manufacturers' protocols. […]

6-day ENR+CD cells [2] = experiment: Cell pellet ATP after short-term (3-hour) stimulation, 2.5-D 96-well platform; type: cell-based, murine; conditions: CCh: adj. p<0.01 for 10 and 100 μM doses
Excerpt: We first sought to profile the potential short-term actors, IFN-γ, LPS, and CCh, and see if with the added resolution of this first-of-its-kind PC platform, we might be able to determine high-resolution EC50's. To generate sufficient cells for plating out all necessary conditions we first expanded and enriched ISCs in traditional 3-D culture and subsequently differentiated for 4 days towards PCs (ENR+CD). Next, we passaged and plated these cells into 96-well plates as 2.5-D and continued differentiating for an additional 2 days in ENR+CD. On day 6 of differentiation, each well was then washed with basal media repeatedly and stimulated with its respective agent, with a measurement of supernatant LYZ paired to cell pellet ATP (FIG. 2A). This screen was repeated on three separate occasions with cells from three distinct murine donors and analyzed combined. We first wanted to determine the approximate standardized effect size of each treatment at each dose, which was accomplished through the replicate-based strictly standardized mean difference (SSMD), an effect size measure based on the statistics of contrast variables, and particularly useful in screening applications as it is a measure which takes into account both mean difference and variance in a single measure. […]

6-day ENR+CD cells [3] = experiment: Short-term (3-hour) stimulation of LYZ secretion, 2.5-D 96-well platform; type: cell-based, murine; conditions: 3-hour stimulation, across all tested doses
Excerpt: We first sought to profile the potential short-term actors, IFN-γ, LPS, and CCh, and see if with the added resolution of this first-of-its-kind PC platform, we might be able to determine high-resolution EC50's. To generate sufficient cells for plating out all necessary conditions we first expanded and enriched ISCs in traditional 3-D culture and subsequently differentiated for 4 days towards PCs (ENR+CD). Next, we passaged and plated these cells into 96-well plates as 2.5-D and continued differentiating for an additional 2 days in ENR+CD. On day 6 of differentiation, each well was then washed with basal media repeatedly and stimulated with its respective agent, with a measurement of supernatant LYZ paired to cell pellet ATP (FIG. 2A). This screen was repeated on three separate occasions with cells from three distinct murine donors and analyzed combined. We first wanted to determine the approximate standardized effect size of each treatment at each dose, which was accomplished through the replicate-based strictly standardized mean difference (SSMD), an effect size measure based on the statistics of contrast variables, and particularly useful in screening applications as it is a measure which takes into account both mean difference and variance in a single measure. […] In total, we see that our 2.5-D platform does provide a reasonable system for assessing and screening for potential short-term modulators of PC antimicrobial secretion.
Small intestinal crypts were isolated from C57BL/6 mice of both sexes, aged between three to six months in all experiments. Crypts were then cultured in a Matrigel culture system. Briefly, crypts were resuspended in basal culture medium (Advanced DMEM/F12 with 2 mM GlutaMAX and 10 mM HEPES; Thermo Fisher Scientific) at a 1:1 ratio with Corning™ Matrigel™ Membrane Matrix—GFR (Fisher Scientific) and plated at the center of each well of 24-well plates. […]

[4] = tested on: ISC-enriched organoids in ENR+CD; experiment: 384-well primary screen of 6-day PC differentiation, secreted LYZ (LYZ.NS, LYZ.S); type: cell-based, C57BL/6 mice; conditions: 6-day ENR+CD+library treatment; SSMD > 0.997 and z-scored FC > 1.282
Experimental: This library offers translational advantages as many of the molecules are either presently used in the clinic for a wide variety of conditions or have been used in clinical trials and animal models.
To prepare for “2.5D” plating, cell-laden Matrigel and media were homogenized via mechanical disruption and centrifuged at 300 g for 3 min at 4° C. Supernatant was removed and the pellet washed and spun in basal culture medium repeatedly until the cloudy Matrigel above the cell pellet was gone. On the final wash, pellet was resuspended in basal culture medium, the number of organoids counted, and the cell pellet was resuspended in ENR+CD medium at ˜7 clusters/μL. 384-well plates were first filled with 10 μL of 70% Matrigel (30% basal media) coating in each well using a Tecan Evo 150 Liquid Handling Deck, and allowed to gel at 37° C. for 5 minutes. […] Compound libraries were pinned into prepped cell plates using 50 nL pins into 30 μL media/well. Cells were cultured at 37° C. with 5% CO2 for six days in ENR+CD medium supplemented with the tested compounds with a media change at three days. On day six, lysozyme secretion and cell viability were assessed using Lysozyme Assay Kit (EnzChek) and CellTiter-Glo 3D Cell Viability Assay (Promega), respectively, according to the manufacturers' protocols. […]

[5] = tested on: conventional organoid (ENR); experiment: 384-well screen in conventional organoid (ENR), secreted LYZ (LYZ.NS, LYZ.S); type: cell-based, C57BL/6 mice; conditions: 6-day ENR+treatment, single treatment-dose
[6] = tested on: mature PC (CD24-mid & LYZ+) and secretory precursor (CD24-hi) populations; experiment: Flow cytometry profiling of organoids in 2.5-D (CD24, LYZ); type: cell-based, C57BL/6 mice; conditions: 6-day ENR+CD+treatment, fraction of viable cells, n=3 bio. donors
Excerpt: Cells processed for flow cytometry were first gated to exclude potential debris or doublets (via widely accepted forward and side scatter gating), and subsequently gated for viability (via Zombie-violet viability dye exclusion), all viable cells were considered for CD24 & LYZ expression analysis. […] For flow cytometry profiling of the 6 validate small molecules, ISC-enriched ‘small clusters’ in 3D Matrigel culture were passaged to a “2.5D” 96-well plate culture system for six days of ENR, or ENR+CD+drug culture in the same manner as described previously with the exception of plating in 96-well plates prepared with a polymerized 70% Matrigel coating in each well. Plates were centrifuged at 50 g for 1 min at 4° C. to allow for cells to partially embed in Matrigel coating. Drugs were pinned into their respective wells using the Tecan from a drug stamp plate. Media was changed at day three, including pinning of the drug treatments. At day six, cells were washed 3× with basal media, then harvested from Matrigel by mechanical disruption in TrypLE Express to remove Matrigel and dissociate organoids to single cells. After vigorous pipetting and incubation at 37° C. for 20 mins, dissociated organoids were strained through a 96-well filter plate with a 30-40 μm filter (Pall) into an ultra low-bind 96-well plate (Costar) by centrifuging at 300×g for 3 mins at 4° C. The cell filtrate was centrifuged again at 300×g for 3 mins at 4° C. to pellet the cells. Cell pellets were resuspended in FACS buffer (2% FBS in PBS0), then transferred to an ultra low-bind 96-well plate for flow prep. Cells were stained with Zombie-violet viability dye (BioLegend) at 100× for viability staining and/or antibody staining solution. FITC-conjugated antibody for lysozyme and APC-conjugated antibody for CD24 were used at 100× dilution (BioLegend). Flow cytometry was performed using a LSR Fortessa (BD; Koch Institute Flow Cytometry Core at MIT). Flow cytometry data was analyzed using FlowJo X v10.1 software.

[7] = tested on: ISC-enriched organoids in ENR+CD; experiment: 384-well secondary screen in ENR+CD incl. early vs. full treatment, secreted LYZ (LYZ.NS, LYZ.S); type: cell-based, C57BL/6 mice
Excerpt: We again assessed treatment effect size with replicate SSMD (using a difference between well replicates and median assay value for all same-plate control wells—see Materials and Methods, High-throughput screening: 384-well secondary screen format and early vs. full treatment analysis) and hits were considered statistically validated by an SSMD greater than the false-positive-derived cutoffs (βα1=0.89 for 8 replicates with alpha=0.05; see Materials and Methods, High-throughput screening: 384-well secondary screen format and early vs. full treatment analysis) for both LYZ.NS and LYZ.S assays (FIG. 7A). Per this new cutoff, 10 dose-treatment combinations corresponding to 7 small molecules were chosen as hits, with every passing dose-treatment having a greater than 0 ATP effect size.
For 384-well plate high-throughput screening, ISC-enriched organoids were passaged and split to single cells with TyrpLE (Thermo Fisher Scientific) and cultured for 2-3 days in ENR+CVY prior to transfer to a “2.5-D” 384-well plate culture system. To prepare for “2.5D” plating, cell-laden Matrigel and media were homogenized via mechanical disruption and centrifuged at 300 g for 3 min at 4° C. Supernatant was removed and the pellet washed and spun in basal culture medium repeatedly until the cloudy Matrigel above the cell pellet was gone. On the final wash, pellet was resuspended in basal culture medium, the number of organoids counted, and the cell pellet was resuspended in ENR+CD medium at ˜7 clusters/μL. 384-well plates were first filled with 10 μL of 70% Matrigel (30% basal media) coating in each well using a Tecan Evo 150 Liquid Handling Deck, and allowed to gel at 37° C. for 5 minutes. Then 30 μL of cell-laden media was plated at the center of each well of 384-well plates with the liquid handler, and the plates were spun down at 50 g for 1 minute to embed organoids on the Matrigel surface. Compound libraries were pinned into prepped cell plates using 50 nL pins into 30 μL media/well. Cells were cultured at 37° C. with 5% CO2 for six days in ENR+CD medium supplemented with the tested compounds with a media change at three days. On day six, lysozyme secretion and cell viability were assessed using Lysozyme Assay Kit (EnzChek) and CellTiter-Glo 3D Cell Viability Assay (Promega), respectively, according to the manufacturers' protocols. Briefly, screen plates were washed 3× with FluoroBrite basal media (2 mM GlutaMAX and 10 mM HEPES in FluoroBrite DMEM (Thermo Fisher Scientific)) using a BioTek 406 plate washer with 10 min incubations followed by a 1 min centrifugation at 200 g to settle media between washes. After removal of the third wash, 30 μL of non-stimulated FluoroBrite basal media was added to each screen well using a Tecan Evo 150 Liquid Handling Deck from a non-stimulated treatment master plate, and plates were incubated for 30 min at 37° C. After 30 minutes, the top 15 μL of media from each well of the screen plate was transferred to a non-stimulated LYZ assay plate containing 15 μL of 20× DQ LYZ assay working solution using a Tecan Evo 150 Liquid Handling Deck. The non-stimulated LYZ assay plate was covered, shaken for 10 min, incubated for 50 min at 37° C., then fluorescence measured (shake 10 s; […]/518 nm) using a Tecan M1000 Plate Reader. After the media transfer to the non-stimulated LYZ assay plate, the remaining media was removed from the screen plate and 30 μL of Stimulated FluoroBrite basal media (supplemented with 10 μM CCh) was added to each screen well using a Tecan Evo 150 Liquid Handling Deck from a stimulated treatment master plate, and plates were incubated for 30 min at 37° C. After 30 minutes, the top 15 μL of media from each well of the screen plate was transferred to a stimulated LYZ assay plate containing 15 μL of 20× DQ LYZ assay working solution using a Tecan Evo 150 Liquid Handling Deck. […]

IFN-γ: cytokine interferon-gamma
effect size of reduction of CCh-induced secretory function relative to untreated control (6-day ENR+CD cells [1]; CCh-induced secretion over 3 hours on day 6): fairly moderate
change in basal LYZ secretion (SSMD effect) (6-day ENR+CD cells [1]; basal secretion over 3 hours on day 6): moderate increase in secretion
effect on cellular ATP (6-day ENR+CD cells [2]): no significant changes in cellular ATP
SSMD effect size as short-term modulator of LYZ secretion (6-day ENR+CD cells [3]): fairly weak effect sizes

Cc1cn(-c2cc(NC(=O)c3ccc(C)c(Nc4nccc(-c5cccnc5)n4)c3)cc(C(F)(F)F)c2)cn1 [Nilotinib]
primary screen hit status in LYZ.NS and LYZ.S assays [4]: strongest LYZ assay-performing treatment-dose
LYZ.S reading versus ENR+DMSO [5]: significantly lower
secretory precursor (CD24-hi) population relative to control [6]: higher proportion
biological potency compared with Bosutinib (LYZ assays) ([7]; 6-day ENR+CD+treatment): the more biologically potent
validation in secondary screen (SSMD above cutoff for both LYZ.NS and LYZ.S) ([7]; 6-day ENR+CD+treatment vs ENR+CD+DMSO, cutoff 0.89, 8 replicates): multiple validated doses

NC(=O)c1ccc(-c2nc(-c3ccc4c(c3)OCO4)c(-c3ccccn3)[nH]2)cc1 [SB431542]
primary screen hit status in LYZ.NS and LYZ.S assays [4]: strongest LYZ assay-performing treatment-dose
LYZ.NS/ATP, early versus full treatment ([7]; ENR+CD, 240 nM): significant (adj. p<0.05) difference between early and full treatment
ATP-normalized LYZ assays (LYZ.NS/ATP, LYZ.S/ATP), early versus full treatment ([7]; ENR+CD, across all doses): suggestive trend across all doses

From patent publication US20200237852A1, “Small Molecule Enhancers of Paneth Cell Function and Differentiation” (Massachusetts Institute of Technology, priority 2019, published 2020)
